According to US20150065416A1, “NOVEL DRUG COMBINATION” (FAB PHARMA SAS, priority 2013, published 2015):
≈ marks a conversion by molar mass, not a printed value. Read-outs that look alike come from different tables or passages of the source.

Experiments:
Type in all cases: cell-based, Acinetobacter baumannii
[1] = test system: A. baumannii CIP 5377, CIP 7034, AYE, SAN, RCH; assay: Antimicrobial susceptibility testing (MIC, broth microdilution, EUCAST; Example 5); conditions: Acinetobacter baumannii
Source text: A. baumannii CIP 5377 (ATCC® 17978): low cephalosporinase producing strain, susceptible to meropenem and amikacin, isolated in an infected patient
A. baumannii CIP 7034: low cephalosporinase producing strain, susceptible to meropenem and amikacin A. baumannii AYE ATCC® BAA1710™: extended spectrum beta-lactamase producing strain susceptible to meropenem and resistant to amikacin
A. baumannii SAN-94040 (SAN): cephalosporinase-overproducing strain, susceptible to meropenem and intermediate to amikacin and resistant to fluoroquinolones, isolated from blood cultures of an intensive care patient with nosocomial pneumonia from North Africa (Algeria).
A. baumannii RCH-69: cephalosporinase producing strain; low susceptibility to imipenem and resistant to amikacin.

[2] = test system: A. baumannii isolates; assay: Individual antimicrobial susceptibility testing (MIC, broth microdilution, CLSI)
Protocol: In the antimicrobial susceptibility testing 77 isolates of A. baumannii (from 2010) in the following sub-groups were tested: • 22 isolates generally susceptible to antimicrobial agents (“Sus”) • 20 carbapenem-resistant isolates (e.g. “MPM-R”) • 20 aminoglycoside-resistant isolates (e.g. “AMK-R”) • 15 colistin-resistant isolates. (e.g. “COL-R”)
Minimum inhibitory concentration (MIC) endpoints were determined by broth microdilution according to CLSI guidelines (CLSI, M7-A8 & M100-S22, 2012). Panels were prepared at IHMA using cation-adjusted Mueller-Hinton broth. Colonies were taken directly from a second-pass culture plate and prepared to a suspension equivalent of the 0.5 McFarland standard using normal saline.
Testing was carried out as described in the General Procedures to determine minimum inhibitory concentration (MIC) end points for compound (I), amikacin, colistin, gentamicin, meropenem and tobramycin, for 77 A. baumannii isolates. Under the “MIC (μg/ml)” heading, the first column (Range) indicates the MIC end points for the particular number (N) of isolates tested, the second column (50%) provides an estimate of the concentration that inhibits 50% (MIC50) of bacterial isolates tested, and the third column (90%) provides an estimate of the concentration that inhibits 90% of the bacterial isolates tested.

[3] = test system: A. baumannii isolates; assay: Checkerboard testing (compound (I)/antibacterial agent interaction, FIC index)
Protocol: Checkerboard interaction studies were performed using 5 isolates from each of the sub-groups and time kill studies were performed using 3 isolates from each sub-group.
Checkerboards (20 isolates, 5 per sub-group) were prepared so as to contain multiple concentrations of compound (I) with different additional antibacterial agents (amikacin, gentamicin, colistin, meropenem and tobramycin) as follows:
Serial two-fold dilutions of the antimicrobial agents alone or in combination in wells of 96 well microtiter plates were inoculated with the appropriate inoculum so that each well contained approximately 4-5×10^4 CFU/ml. Plates were incubated at 35° C. for 16-20 hours. Combination concentrations were tested between 0.25×MIC and 2×MIC. Growth and sterility controls were also included in each plate.
Synergy, indifference and antagonism were calculated based upon the use of the fractional inhibitory concentration (FIC) indices as described by Pillai, Moellering & Eliopoulos (2005) whereby:
Synergism=FIC index of ≦0.5 Indifference=FIC index >1 but ≦4 Additivity >0.5 to 1 Antagonism=FIC index of >4
Checkerboard studies were carried out as described in General Procedures using twenty different A. baumannii isolates with 5 per sub-group of: susceptible, amikacin-resistant, colistin-resistant and meropenem-resistant.

[4] = A. baumannii AYE, read-out: MIC
[5] = A. baumannii CIP 5377, read-out: MIC
[6] = A. baumannii CIP 7034, read-out: MIC
[7] = A. baumannii RCH, read-out: MIC
[8] = A. baumannii SAN, read-out: MIC
[9] = Acinetobacter baumannii, All isolates, N=77
[10] = Acinetobacter baumannii, Amikacin-resistant isolates, N=20
[11] = Acinetobacter baumannii, Colistin-resistant isolates, N=15
[12] = Acinetobacter baumannii, Meropenem-resistant isolates, N=20
[13] = Acinetobacter baumannii, Susceptible isolates, N=22
[14] = Acinetobacter baumannii, A. baumannii 441142, colistin-resistant, read-out: MIC
[15] = Acinetobacter baumannii, A. baumannii 441160, colistin-resistant, read-out: MIC
[16] = Acinetobacter baumannii, A. baumannii 463996, colistin-resistant, read-out: MIC
[17] = Acinetobacter baumannii, A. baumannii 466936, colistin-resistant, read-out: MIC
[18] = Acinetobacter baumannii, A. baumannii 618649, meropenem-resistant, read-out: MIC
[19] = Acinetobacter baumannii, A. baumannii 625917, meropenem-resistant, read-out: MIC
[20] = Acinetobacter baumannii, A. baumannii 628760, susceptible, read-out: MIC
[21] = Acinetobacter baumannii, A. baumannii 637723, amikacin-resistant, read-out: MIC
[22] = Acinetobacter baumannii, A. baumannii 638115, amikacin-resistant, read-out: MIC
[23] = Acinetobacter baumannii, A. baumannii 650216, meropenem-resistant, read-out: MIC
[24] = Acinetobacter baumannii, A. baumannii 655932, amikacin-resistant, read-out: MIC
[25] = Acinetobacter baumannii, A. baumannii 661954, amikacin-resistant, read-out: MIC
[26] = Acinetobacter baumannii, A. baumannii 667848, meropenem-resistant, read-out: MIC
[27] = Acinetobacter baumannii, A. baumannii 668116, susceptible, read-out: MIC
[28] = Acinetobacter baumannii, A. baumannii 668239, amikacin-resistant, read-out: MIC
[29] = Acinetobacter baumannii, A. baumannii 670348, susceptible, read-out: MIC
[30] = Acinetobacter baumannii, A. baumannii 671050, meropenem-resistant, read-out: MIC
[31] = Acinetobacter baumannii, A. baumannii 672190, susceptible, read-out: MIC
[32] = Acinetobacter baumannii, A. baumannii 674340, susceptible, read-out: MIC
[33] = Amikacin-resistant isolates, N=20
[34] = Acinetobacter baumannii, A. baumannii 517303, colistin-resistant, read-out: MIC

NCC[C@H](O)C(=O)N[C@@H]1C[C@H](N)[C@@H](O[C@H]2O[C@H](CN)[C@@H](O)[C@H](O)[C@H]2O)[C@H](O)[C@H]1O[C@H]1O[C@H](CO)[C@@H](O)[C@H](N)[C@H]1O [amikacin]
MIC [1, 4]: 32 µg/mL (≈ 54.6 µM) | MIC [1, 5]: 2 µg/mL (≈ 3.42 µM) | MIC [1, 6]: 8 µg/mL (≈ 13.7 µM) | MIC [1, 7]: > 32 µg/mL | MIC [1, 8]: 4 µg/mL (≈ 6.83 µM) | MIC50 [2, 9]: 8 µg/mL (≈ 13.7 µM) | MIC90 [2, 9]: > 128 µg/mL | MIC50 [2, 10]: > 128 µg/mL | MIC90 [2, 10]: > 128 µg/mL | MIC50 [2, 11]: 64 µg/mL (≈ 109 µM) | MIC90 [2, 11]: > 128 µg/mL | MIC50 [2, 12]: 8 µg/mL (≈ 13.7 µM) | MIC90 [2, 12]: 128 µg/mL (≈ 219 µM) | MIC50 [2, 13]: 4 µg/mL (≈ 6.83 µM) | MIC90 [2, 13]: 8 µg/mL (≈ 13.7 µM) | MIC Range ([2]; Susceptible isolates, N=22): 0.25 to 8 µg/mL | MIC [3, 14]: > 1020 µg/mL | MIC [3, 15]: > 1020 µg/mL | MIC [3, 16]: 8 µg/mL | MIC [3, 17]: 64 µg/mL | MIC ([3]; Acinetobacter baumannii, A. baumannii 517303, colistin-resistant): 128 µg/mL | MIC [3, 18]: 4 µg/mL | MIC [3, 19]: 4 µg/mL | MIC [3, 20]: 8 µg/mL | MIC [3, 21]: 256 µg/mL | MIC [3, 22]: 1020 µg/mL | MIC [3, 23]: 4 µg/mL | MIC [3, 24]: 512 µg/mL | MIC [3, 25]: 512 µg/mL | MIC [3, 26]: 4 µg/mL | MIC [3, 27]: 2 µg/mL | MIC [3, 28]: > 1020 µg/mL | MIC [3, 29]: 8 µg/mL | MIC [3, 30]: 8 µg/mL | MIC [3, 31]: 4 µg/mL | MIC [3, 32]: 4 µg/mL

CCc1cc(O)c(Oc2ccc(C(N)=O)cc2F)cc1F [compound (I), 4-(4-ethyl-5-fluoro-2-hydroxyphenoxy)-3-fluorobenzamide]
MIC ([1]; 5 isolates of A. baumannii, read-out: MICs ranging): 1 to 2 µg/mL (≈ 3.41 to 6.82 µM) | MIC [1, 4]: 2 µg/mL (≈ 6.82 µM) | MIC [1, 5]: 2 µg/mL (≈ 6.82 µM) | MIC [1, 6]: 1 µg/mL (≈ 3.41 µM) | MIC [1, 7]: 2 µg/mL (≈ 6.82 µM) | MIC [1, 8]: 2 µg/mL (≈ 6.82 µM) | range of the majority of MICs ([2]; 77 isolates): 2 to 8 µg/mL | MIC50 [2, 9]: 4 µg/mL (≈ 13.6 µM) | MIC90 [2, 9]: 8 µg/mL (≈ 27.3 µM) | MIC50 [2, 10]: 4 µg/mL (≈ 13.6 µM) | MIC90 [2, 10]: 8 µg/mL (≈ 27.3 µM) | MIC50 [2, 11]: 4 µg/mL (≈ 13.6 µM) | MIC90 [2, 11]: > 32 µg/mL | MIC50 [2, 12]: 8 µg/mL (≈ 27.3 µM) | MIC90 [2, 12]: 8 µg/mL (≈ 27.3 µM) | MIC50 [2, 13]: 4 µg/mL (≈ 13.6 µM) | MIC90 [2, 13]: 8 µg/mL (≈ 27.3 µM) | MIC ([2]; Acinetobacter baumannii, 77 isolates, FIG. 1 and 2, read-out: mode MIC): 4 µg/mL (≈ 13.6 µM) | MIC Range [2, 33]: 2 to 8 µg/mL | MIC Range ([2]; Susceptible isolates, N=22): 0.5 to 8 µg/mL | MICs ranging ([2]; amikacin-R isolates): 2 to 8 µg/mL | MICs ranging ([2]; susceptible isolates): 0.5 to 8 µg/mL | MIC ([3]; A. baumannii 441142, colistin-resistant): 2 µg/mL | MIC ([3]; A. baumannii 441160, colistin-resistant): 4 µg/mL | MIC ([3]; A. baumannii 463996, colistin-resistant): 2 µg/mL | MIC ([3]; A. baumannii 466936, colistin-resistant): 16 µg/mL | MIC ([3]; A. baumannii 618649, meropenem-resistant): 4 µg/mL | MIC ([3]; A. baumannii 638115, amikacin-resistant): 8 µg/mL | MIC ([3]; A. baumannii 655932, amikacin-resistant): 2 µg/mL | MIC ([3]; A. baumannii 661954, amikacin-resistant): 8 µg/mL | MIC ([3]; A. baumannii 667848, meropenem-resistant): 8 µg/mL | MIC ([3]; A. baumannii 670348, susceptible): 4 µg/mL | MIC ([3]; A. baumannii 671050, meropenem-resistant): 8 µg/mL | MIC ([3]; A. baumannii 672190, susceptible): 4 µg/mL | MIC ([3]; A. baumannii 674340, susceptible): 1 µg/mL | MIC [3, 14]: 4 µg/mL | MIC [3, 15]: 8 µg/mL | MIC [3, 16]: 4 µg/mL | MIC [3, 17]: 8 µg/mL | MIC [3, 34]: 4 µg/mL | MIC [3, 18]: 2 µg/mL | MIC [3, 19]: 4 µg/mL | MIC [3, 20]: 2 µg/mL | MIC [3, 21]: 2 µg/mL | MIC [3, 22]: 4 µg/mL | MIC [3, 23]: 8 µg/mL | MIC [3, 24]: 4 µg/mL | MIC [3, 25]: 4 µg/mL | MIC [3, 26]: 4 µg/mL | MIC [3, 29]: 2 µg/mL | MIC [3, 30]: 4 µg/mL | MIC [3, 31]: 8 µg/mL | MIC [3, 32]: 2 µg/mL

C[C@@H](O)[C@H]1C(=O)N2C(C(=O)O)=C(S[C@@H]3CN[C@H](C(=O)N(C)C)C3)[C@H](C)[C@H]12 [meropenem]
MIC [1, 4]: 1 µg/mL (≈ 2.61 µM) | MIC [1, 5]: 0.25 µg/mL (≈ 0.652 µM) | MIC [1, 6]: 1 µg/mL (≈ 2.61 µM) | MIC [1, 7]: 32 µg/mL (≈ 83.4 µM) | MIC [1, 8]: 1 µg/mL (≈ 2.61 µM) | MIC50 [2, 9]: 4 µg/mL (≈ 10.4 µM) | MIC90 [2, 9]: > 32 µg/mL | MIC50 [2, 10]: 2 µg/mL (≈ 5.22 µM) | MIC90 [2, 10]: 16 µg/mL (≈ 41.7 µM) | MIC50 [2, 11]: 32 µg/mL (≈ 83.4 µM) | MIC90 [2, 11]: > 32 µg/mL | MIC50 [2, 12]: > 32 µg/mL | MIC90 [2, 12]: > 32 µg/mL | MIC50 [2, 13]: 0.25 µg/mL (≈ 0.652 µM) | MIC90 [2, 13]: 2 µg/mL (≈ 5.22 µM) | MIC Range [2, 33]: 0.5 to 32 µg/mL | MIC Range ([2]; Susceptible isolates, N=22): 0.06 to 4 µg/mL | MIC [3, 14]: 64 µg/mL | MIC [3, 15]: 64 µg/mL | MIC ([3]; Acinetobacter baumannii, A. baumannii 463996, colistin-resistant): 0.125 µg/mL | MIC ([3]; Acinetobacter baumannii, A. baumannii 466936, colistin-resistant): 128 µg/mL | MIC [3, 34]: 1 µg/mL | MIC [3, 18]: 64 µg/mL | MIC [3, 19]: 64 µg/mL | MIC [3, 20]: 0.25 µg/mL | MIC [3, 21]: 1 µg/mL | MIC [3, 22]: 2 µg/mL | MIC [3, 23]: 64 µg/mL | MIC [3, 24]: 16 µg/mL | MIC [3, 25]: 1 µg/mL | MIC [3, 26]: 32 µg/mL | MIC [3, 27]: 0.5 µg/mL | MIC [3, 28]: 16 µg/mL | MIC [3, 29]: 0.5 µg/mL | MIC [3, 30]: 32 µg/mL | MIC [3, 31]: 0.5 µg/mL | MIC [3, 32]: 0.5 µg/mL
